Test system: KRAS mutant colorectal cancer cells
Experiment: Cellular senescence assay, separate examples with single drugs
Assay type: cell-based
Description: Senescence is a state when cells enter a stable growth arrest. Unlike a quiescent cell, a senescent cell will not re-enter the cell cycle in response to any known physiological stimuli. A biomarker of senescence is the increased level of β-galactosidase activity at pH 6.0. Cellular senescence assay was performed with Senescence β-Galactosidase Cell Staining Kit (Cell Signaling, USA) according to the manufacturer's instructions. Briefly, cells cultured in 6-well tissue culture plates were treated with the designated drugs or DMSO. The cells were continually incubated for additional 4-8 days before being fixed for further testing. For senescence assay, b-Galactosidase Staining Solution was added to the fixed cells and the plates were incubated at 37° C. to allow color to develop. Microscopic images were then taken and the cells in senescence were indicated by the development of blue color (shown as black spots in the figures). The experimental design is the same as in Example 15.

SMILES | induction of cell senescence
COc1cccc2c1C(=O)c1c(O)c3c(c(O)c1C2=O)C[C@@](O)(C(=O)CO)C[C@@H]3O[C@H]1C[C@H](N)[C@H](O)[C@H](C)O1 [doxorubicin] | did not induce cell senescence
COc1cc([C@@H]2c3cc4c(cc3[C@@H](O[C@@H]3O[C@@H]5CO[C@@H](C)O[C@H]5[C@H](O)[C@H]3O)[C@H]3COC(=O)[C@H]23)OCO4)cc(OC)c1O [etoposide] | did not induce cell senescence
